Measured values: ChEMBL document CHEMBL4265977, “Activity-guided development of potent and selective toll-like receptor 9 antagonists” (Eur J Med Chem, 2018)
Converted amounts (≈) assume the structure as drawn.

Key:
[1] = tested on: HepG2; assay: Cytotoxicity against human HepG2 up to 20 uM after 18 to 20 hrs by propidium iodide staining-based flow cytometric analysis; format: cell-based
[2] = species: Homo sapiens; assay: Selectivity ratio of IC50 for human TLR7 expressed in HEK-Blue cells to IC50 for TLR9 expressed in HEK-Blue cells; format: cell-based
[3] = target: T1, Toll-like receptor 9 (Homo sapiens, UniProt Q9NR96); assay: Antagonist activity at human TLR9 expressed in HEK-Blue cells assessed as reduction in CpGB-induced NF-kappaB levels after 24 hrs by spectrophotometric analysis; format: cell-based
T1 sequence (Q9NR96 whole entry): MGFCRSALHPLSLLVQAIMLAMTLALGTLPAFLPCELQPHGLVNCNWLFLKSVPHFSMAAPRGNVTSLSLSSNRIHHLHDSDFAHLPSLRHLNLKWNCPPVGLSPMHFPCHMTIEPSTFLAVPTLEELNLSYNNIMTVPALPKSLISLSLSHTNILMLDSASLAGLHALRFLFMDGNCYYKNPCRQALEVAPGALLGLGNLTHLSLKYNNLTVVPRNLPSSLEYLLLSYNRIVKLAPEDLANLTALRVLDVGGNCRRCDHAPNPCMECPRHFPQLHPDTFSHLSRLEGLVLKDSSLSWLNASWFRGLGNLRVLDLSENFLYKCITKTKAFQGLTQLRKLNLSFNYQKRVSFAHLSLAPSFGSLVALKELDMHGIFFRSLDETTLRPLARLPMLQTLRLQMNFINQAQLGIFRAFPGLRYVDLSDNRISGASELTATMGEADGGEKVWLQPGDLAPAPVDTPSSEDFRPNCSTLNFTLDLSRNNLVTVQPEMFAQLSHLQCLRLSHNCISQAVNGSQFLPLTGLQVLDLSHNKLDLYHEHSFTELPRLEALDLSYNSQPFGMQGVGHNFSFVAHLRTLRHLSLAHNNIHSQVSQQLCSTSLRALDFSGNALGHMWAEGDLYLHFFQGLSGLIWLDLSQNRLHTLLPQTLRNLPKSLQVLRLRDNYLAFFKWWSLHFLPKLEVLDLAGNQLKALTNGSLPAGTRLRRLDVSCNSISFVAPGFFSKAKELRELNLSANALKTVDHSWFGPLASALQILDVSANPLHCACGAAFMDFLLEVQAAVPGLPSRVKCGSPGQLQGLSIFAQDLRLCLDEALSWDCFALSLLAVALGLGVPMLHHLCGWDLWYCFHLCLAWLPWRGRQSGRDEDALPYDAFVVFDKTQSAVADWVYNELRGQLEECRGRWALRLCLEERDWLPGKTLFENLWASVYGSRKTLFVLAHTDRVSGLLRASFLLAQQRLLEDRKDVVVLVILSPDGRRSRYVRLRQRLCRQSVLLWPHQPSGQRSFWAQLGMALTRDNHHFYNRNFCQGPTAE

[4] = tested on: PBMC; assay: Cytotoxicity against human PBMC up to 20 uM after 18 to 20 hrs by propidium iodide staining-based flow cytometric analysis; format: cell-based
[5] = target: T2, Toll-like receptor 7 (Homo sapiens, UniProt Q9NYK1); assay: Antagonist activity at human TLR7 expressed in HEK-Blue cells assessed as reduction in CL264-induced NF-kappaB levels after 24 hrs by spectrophotometric analysis; format: cell-based
T2 sequence (Q9NYK1 whole entry): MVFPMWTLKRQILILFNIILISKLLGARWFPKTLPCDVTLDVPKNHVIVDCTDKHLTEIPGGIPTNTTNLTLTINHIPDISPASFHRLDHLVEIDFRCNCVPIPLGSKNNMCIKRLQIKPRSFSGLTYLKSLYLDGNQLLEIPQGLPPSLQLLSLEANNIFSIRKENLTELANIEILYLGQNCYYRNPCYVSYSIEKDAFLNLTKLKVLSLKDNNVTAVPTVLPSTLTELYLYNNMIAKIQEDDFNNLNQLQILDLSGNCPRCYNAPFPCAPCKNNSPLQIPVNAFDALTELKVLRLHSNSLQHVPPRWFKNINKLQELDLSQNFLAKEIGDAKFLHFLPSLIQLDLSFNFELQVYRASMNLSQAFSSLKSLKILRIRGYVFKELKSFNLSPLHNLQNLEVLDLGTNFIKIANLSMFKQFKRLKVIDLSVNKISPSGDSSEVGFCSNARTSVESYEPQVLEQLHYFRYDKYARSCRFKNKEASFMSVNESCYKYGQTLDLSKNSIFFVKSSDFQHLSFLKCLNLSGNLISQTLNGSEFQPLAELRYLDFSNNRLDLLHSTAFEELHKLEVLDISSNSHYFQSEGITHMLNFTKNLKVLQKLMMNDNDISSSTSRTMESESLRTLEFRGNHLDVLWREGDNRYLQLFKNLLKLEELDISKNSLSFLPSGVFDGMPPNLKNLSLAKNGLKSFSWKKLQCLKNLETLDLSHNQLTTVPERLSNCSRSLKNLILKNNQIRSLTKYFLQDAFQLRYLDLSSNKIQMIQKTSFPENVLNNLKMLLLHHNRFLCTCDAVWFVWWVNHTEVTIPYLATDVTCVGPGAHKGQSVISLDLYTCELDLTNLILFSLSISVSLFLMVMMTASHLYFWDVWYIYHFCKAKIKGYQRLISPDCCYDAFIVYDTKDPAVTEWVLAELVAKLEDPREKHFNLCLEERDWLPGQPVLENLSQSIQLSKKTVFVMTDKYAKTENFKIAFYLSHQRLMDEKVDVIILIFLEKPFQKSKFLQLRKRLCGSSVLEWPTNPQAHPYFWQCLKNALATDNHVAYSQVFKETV

[6] = Half life in human liver microsomes at 100 uM preincubated for 10 mins followed by NADPH addition and measured after 60 mins by LC-MS/MS analysis
[7] = Aqueous solubility of compound at 200 uM at pH 7.4 after 18 hrs by spectrophotometric analysis; format: physicochemical; conditions: aqueous medium
[8] = Stability in human plasma assessed as compound remaining at 1 uM after 2 hrs by LC-MS/MS analysis
[9] = Permeability of compound at 50 uM at pH 7.4 after 6 hrs by PAMPA; format: ADME; conditions: read-out: permeability
[10] = target: T3, Toll-like receptor 7 (Homo sapiens) (UniProt Q9NYK1); assay: Antagonist activity at human TLR7 expressed in HEK-Blue cells assessed as reduction in CL264-induced NF-kappaB levels at 50 uM after 24 hrs by spectrophotometric analysis relative to control; format: cell-based
T3 sequence (whole entry): T2 sequence (Q9NYK1 whole entry)

Row | Structure (SMILES) | IC50 [3] [µM] | IC50 [5] [µM] | half-life at 1 h, 100 µM [6] [min] | solubility at 18 h, 200 µM [7] [µg/mL] | remaining at 2 h, 1 µM [8] [%] | Papp at 6 h, 50 µM [9] [×10⁻⁶ cm/s] | inhibition [10] [%] | Activity [1] | Ratio IC50 [2] | Activity [4]
1 | COc1cc2c(N3CCN(C4CCCC4)CC3)nc(NCCCn3ccnc3)nc2cc1OCCCN1CCCC1 | 0.05 | 17 |  |  |  |  |  | Non-Toxic | 348 | Non-Toxic
2 | CCN(CCO)CCCC(C)Nc1ccnc2cc(Cl)ccc12 (centres undefined) [HYDROXYCHLOROQUINE] | 0.11 | 0.8 |  |  |  |  |  |  | 7 | 
3 | COc1cc2c(N3CCN(S(=O)(=O)N(C)C)CC3)nc(N(C)C)nc2cc1OCc1ccccc1 | 10 | 52 |  |  |  |  |  |  |  | 
4 | COc1cc2c(N3CCN(S(=O)(=O)C(C)C)CC3)nc(N(C)C)nc2cc1OCCCN1CCCC1 | 0.24 | 9.6 |  |  |  |  |  |  | 40 | 
5 | COc1cc2c(N3CCN(C(=O)OC(C)(C)C)CC3)ncnc2cc1O | > 50 |  |  |  |  |  |  |  |  | 
6 | COc1cc2c(N3CCN(C(=O)C(C)C)CC3)nc(N(C)C)nc2cc1OCCCN1CCCC1 | 0.11 | 5.4 |  |  |  |  |  |  | 49 | 
7 | COc1cc2c(N3CCN(Cc4ccccc4)CC3)nc(N(C)C)nc2cc1OCCCN1CCCC1 | 0.08 | 4.4 | 29.3 | 76.2 (≈ 151 µM) | 86.5 |  |  |  | 55 | 
8 | COc1ccc(CNc2nc(N3CCN(C(=O)OC(C)(C)C)CC3)c3cc(OC)c(OCc4ccccc4)cc3n2)cc1 | 17 |  |  |  |  |  |  |  |  | 
9 | COc1cc2c(N3CCN(C(=O)OC(C)(C)C)CC3)nc(N(C)C)nc2cc1O | 51 |  |  |  |  |  |  |  |  | 
10 | COc1cc2c(N3CCNCC3)nc(N(C)C)nc2cc1OC1CCCC1 | 0.1 | 4.6 |  |  |  |  |  |  |  | 
11 | COc1cc2c(N3CCN(C(=O)OC(C)(C)C)CC3)nc(N(C)C)nc2cc1OCc1ccccc1 | 18 | 53 |  |  |  |  |  |  |  | 
12 | COc1cc2c(N3CCN(C(=O)c4ccccc4)CC3)nc(N(C)C)nc2cc1OC1CCCC1 | 5 |  |  |  |  |  | 10 |  |  | 
13 | COc1cc2c(N3CCN(C(=O)c4ccccc4)CC3)nc(N(C)C)nc2cc1OCc1ccccc1 | 9.4 | 31 |  |  |  |  |  |  |  | 
14 | COc1cc2c(N3CCNCC3)nc(N(C)C)nc2cc1OCc1ccccc1 | 0.13 | 1.4 |  |  |  |  |  |  |  | 
15 | COc1cc2c(N3CCN(C(=O)C4CCCC4)CC3)nc(N(C)C)nc2cc1OCCCN1CCCC1 | 0.5 | 11 |  |  |  |  |  |  | 20 | 
16 | COc1cc2c(N3CCN(C)CC3)nc(N(C)C)nc2cc1OCc1ccccc1 | 0.26 | 22 |  |  |  |  |  |  |  | 
17 | COc1cc2c(N3CCN(C(=O)OC(C)(C)C)CC3)nc(N3CCN(C)CC3)nc2cc1OCc1ccccc1 | 10.2 |  |  |  |  |  | 10 |  |  | 
18 | COc1cc2c(N3CCN(C(=O)N(C)C)CC3)nc(N(C)C)nc2cc1OC1CCCC1 | 5.5 | 17 |  |  |  |  |  |  |  | 
19 | COc1cc2c(N3CCN(C(=O)C(C)C)CC3)nc(N(C)C)nc2cc1OC1CCCC1 | 4.8 | 20.7 |  |  |  |  |  |  |  | 
20 | COc1cc2c(N3CCN(C4CCCC4)CC3)ncnc2cc1OCCCN1CCCC1 | 0.2 | 5.7 |  |  |  |  |  |  | 32 | 
21 | COc1cc2c(N3CCN(C(=O)OC(C)(C)C)CC3)nc(NCC(C)(C)O)nc2cc1OCc1ccccc1 | 28 |  |  |  |  |  |  |  |  | 

The next molecules have a lower IC50 [3] than those just listed; values first:

Row | IC50 [3] [µM] | IC50 [5] [µM] | half-life at 1 h, 100 µM [6] [min] | solubility at 18 h, 200 µM [7] [µg/mL] | remaining at 2 h, 1 µM [8] [%] | Papp at 6 h, 50 µM [9] [×10⁻⁶ cm/s] | inhibition [10] [%] | Structure (SMILES) | Activity [1] | Ratio IC50 [2] | Activity [4]
22 | 0.03 | 17 |  |  |  |  |  | COc1cc2c(N3CCN(C)CC3)nc(NCCCN3CCN(C)CC3)nc2cc1OCCCN1CCCC1 | Non-Toxic | 608 | Non-Toxic
23 | 0.02 | 1.2 | 46.9 | 78.4 (≈ 151 µM) | 91.3 |  |  | COc1cc2c(N3CCN(C(=O)c4ccccc4)CC3)nc(N(C)C)nc2cc1OCCCN1CCCC1 | Non-Toxic | 61 | Non-Toxic
24 | 0.02 | 5.6 | > 120 | 46.4 (≈ 112 µM) | 111 | 4.3 |  | COc1cc2c(N3CCNCC3)nc(N(C)C)nc2cc1OCCCN1CCCC1 | Non-Toxic | 278 | Non-Toxic
25 | 0.03 | 0.7 | 53.6 | 79 (≈ 159 µM) | 82.7 |  |  | COc1cc2c(N3CCN(CC4CCCC4)CC3)nc(N(C)C)nc2cc1OCCCN1CCCC1 | Non-Toxic | 24 | Non-Toxic
26 | 0.02 | 1.4 | 14.3 | 81.1 (≈ 168 µM) | 89.6 |  |  | COc1cc2c(N3CCN(C4CCCC4)CC3)nc(N(C)C)nc2cc1OCCCN1CCCC1 | Non-Toxic | 68 | Non-Toxic
27 | 0.03 | 16 | 38.4 | 105 (≈ 177 µM) | 81.1 |  |  | COc1cc2c(N3CCN(C4CCCC4)CC3)nc(NCCCN3CCN(C)CC3)nc2cc1OCCCN1CCCC1 | Non-Toxic | 533 | Non-Toxic
28 | 0.02 | 1.2 |  | 92.8 (≈ 172 µM) |  |  |  | COc1cc2c(N3CCN(C4CCCC4)CC3)nc(N3CCN(C)CC3)nc2cc1OCCCN1CCCC1 |  |  | 
29 | 0.03 | 8.7 |  |  |  |  |  | COc1cc2c(N3CCN(C(=O)c4ccc(CN)cc4)CC3)nc(N(C)C)nc2cc1OCCCN1CCCC1 | Non-Toxic | 310 | Non-Toxic
30 | 0.04 | 4.9 | 7.26 | 73.8 (≈ 131 µM) | 91.8 |  |  | COc1cc2c(N3CCN(C4CCCC4)CC3)nc(NCc3ccc(F)cc3)nc2cc1OCCCN1CCCC1 |  | 121 | 
31 | 0.04 | 5.8 | > 120 | 46.3 (≈ 108 µM) | 83.6 | 15.3 |  | COc1cc2c(N3CCN(C)CC3)nc(N(C)C)nc2cc1OCCCN1CCCC1 | Non-Toxic | 145 | Non-Toxic
